The target in test [1] is T1, Procathepsin L (Homo sapiens, UniProt P07711). As to the kind of experiment: Inhibitory activity against recombinant human cathepsin L.
The next test deals with T2, Cathepsin K (Homo sapiens, UniProt P43235).
T2 sequence (P43235 whole entry): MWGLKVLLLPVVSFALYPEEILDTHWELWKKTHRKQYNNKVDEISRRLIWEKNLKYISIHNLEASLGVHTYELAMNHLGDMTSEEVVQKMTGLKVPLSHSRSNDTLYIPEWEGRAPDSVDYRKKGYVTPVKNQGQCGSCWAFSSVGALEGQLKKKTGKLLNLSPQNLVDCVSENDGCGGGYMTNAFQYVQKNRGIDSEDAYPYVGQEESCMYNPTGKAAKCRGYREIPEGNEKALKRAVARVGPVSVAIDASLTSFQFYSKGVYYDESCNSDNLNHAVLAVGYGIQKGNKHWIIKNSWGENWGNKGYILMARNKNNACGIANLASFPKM
As to the kind of experiment: Inhibitory activity against recombinant human cathepsin K.

Another test deals with Cathepsin B (Homo sapiens, UniProt P07858). As to the kind of experiment: Inhibitory activity against recombinant human cathepsin B.
The next test is filed under the species Mus musculus. As to the kind of experiment: Inhibitory activity against bone resorption in mouse. It counts as functional.
The species named for the next test is Homo sapiens. As to the kind of experiment: Inhibitory activity against bone resorption in human. It counts as functional. Conditions: Bone element.
Test [2] concerns the target T1, Procathepsin L. As to the kind of experiment: Inhibitory activity against recombinant human cathepsin L (1.2 nM).

Structures are written as SMILES. Peptide text beside a SMILES is read from it. * marks the point of attachment. Cbz = O=C(OCc1ccccc1)* Where only a bound is given, the exact number is not on record here.

T1 sequence (P07711 whole entry): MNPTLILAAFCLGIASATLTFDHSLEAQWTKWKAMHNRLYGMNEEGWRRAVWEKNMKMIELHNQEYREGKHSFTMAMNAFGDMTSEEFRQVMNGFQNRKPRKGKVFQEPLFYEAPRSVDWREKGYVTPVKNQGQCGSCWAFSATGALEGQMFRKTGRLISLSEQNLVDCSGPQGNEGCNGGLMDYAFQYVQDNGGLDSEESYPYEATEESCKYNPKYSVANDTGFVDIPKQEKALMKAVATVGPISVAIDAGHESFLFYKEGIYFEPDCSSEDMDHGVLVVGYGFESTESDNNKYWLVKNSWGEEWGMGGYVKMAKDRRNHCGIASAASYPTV

A word on the IC50: it is the concentration at which inhibition is half-maximal. What is called Ki is the dissociation constant of the complex between target and ligand, obtained from inhibition or displacement. `O=C(CNC(=O)OCc1ccccc1)N[C@@H](CCc1ccccc1)CNc1ccc(N2CCCCC2)cc1`: the IC50 on Procathepsin L [1] and at Cathepsin K was above 10000 nM throughout. Also, the Ki at Cathepsin B was above 10000 nM.
For the compound `O=C(N[C@H](Cc1ccc(O)cc1)C(=O)N[C@@H](CCc1ccccc1)CNc1ccc(N2CCCCC2)cc1)OCc1ccccc1`, the values for the IC50 on Procathepsin L [1] and on Cathepsin K were 1 nM and 8 nM, respectively. In addition, the Ki on Cathepsin B was determined as 106 nM.
Take `O=C(N[C@H](CCc1ccccc1)C(=O)N[C@@H](CCc1ccccc1)CNc1ccc(N2CCCCC2)cc1)OCc1ccccc1`: the IC50 at Procathepsin L [1] worked out at 9 nM; at Cathepsin K, 14 nM. Also, the Ki at Cathepsin B was 9660 nM.
In the case of `CC(C)C[C@H](NC(=O)OCc1ccccc1)C(=O)N[C@H](CNc1ccc(N2CCCCC2)cc1)Cc1ccccc1`, the IC50 on Procathepsin L [1] is 2 nM; at Cathepsin K, 10 nM; in the test filed under Mus musculus, 1000 nM; in the test listed under Homo sapiens, 1000 nM.
For the compound `CC(C)C[C@@H](NC(=O)OCc1ccccc1)C(=O)N[C@@H](CCc1ccccc1)CNc1ccc(N2CCCCC2)cc1`, the results for the IC50 at Procathepsin L [1] and at Cathepsin K were 2 nM and 5 nM, respectively. Besides, the Ki on Cathepsin B came to 658 nM.
In the case of `CSCC[C@@H](NC(=O)OCc1ccccc1)C(=O)N[C@@H](CCc1ccccc1)CNc1ccc(N2CCCCC2)cc1`, the IC50 worked out at 36 nM on Procathepsin L [1] and 3 nM on Cathepsin K. Also, the Ki on Cathepsin B turned out to be 12 nM.
For `O=C(N[C@H](Cc1ccccc1)C(=O)N[C@@H](CCc1ccccc1)CNc1ccc(N2CCCCC2)cc1)OCc1ccccc1` the same measures were 1 nM, 3 nM and 167 nM.
For the compound `CC(C)C[C@H](NC(=O)OCc1ccccc1)C(=O)N[C@H](C=O)Cc1ccccc1` (Cbz-Leu-Phe-aldehyde), the IC50 at Procathepsin L [1] is 20 nM.
Regarding `CC(C)[C@@H](NC(=O)OCc1ccccc1)C(=O)N[C@@H](CCc1ccccc1)CNc1ccc(N2CCCCC2)cc1`, the 50% inhibitory concentration (IC50) on Procathepsin L [1] amounted to 1 nM; at Cathepsin K it was 4 nM; in the test filed under Mus musculus, 330 nM; in the test listed under Homo sapiens, 560 nM. Moreover, the Ki at Cathepsin B worked out at 7 nM.
Take `C[C@@H](NC(=O)OCc1ccccc1)C(=O)N[C@@H](CCc1ccccc1)CNc1ccc(N2CCCCC2)cc1`: the IC50 at Procathepsin L [1] was 4110 nM; on Cathepsin K, 9 nM. At Cathepsin B, the Ki stood at 2090 nM.
For `O=C(N[C@H](CC1C=Nc2ccccc21)C(=O)N[C@@H](CCc1ccccc1)CNc1ccc(N2CCCCC2)cc1)OCc1ccccc1` (stereo not given in full) the same measures were 1 nM, 48 nM and 3360 nM.
For the compound `CC(C)C[C@H](NC(=O)OCc1ccccc1)C(=O)N[C@H](CNc1ccc(-c2ccccc2)cc1)Cc1ccccc1`, the IC50 at Procathepsin L [1] is 32 nM; on Cathepsin K it was 706 nM.
On to `CSCC[C@@H](C=O)NC(=O)[C@H](CC(C)C)NC(=O)OCc1ccccc1` (Cbz-Leu-Met-aldehyde), for which the IC50 worked out at 1.3 nM on Procathepsin L [1] and 5 nM at Procathepsin L [2].
Turning to `CC(C)C[C@H](NC(=O)OCc1ccccc1)C(=O)N[C@H](CNc1ccccc1)Cc1ccccc1`, the IC50 at Procathepsin L [1] is 230 nM; on Cathepsin K, 1100 nM.
In the same order, the values of `CC(C)C[C@H](NC(=O)OCc1ccccc1)C(=O)N[C@H](CNc1ccc(N2CCOCC2)cc1)Cc1ccccc1` are 2 nM and 15 nM.
Turning to `O=C(N[C@@H](CCc1ccccc1)CNc1ccc(N2CCCCC2)cc1)C1CCCN1C(=O)OCc1ccccc1` (stereo not given in full), the IC50 amounted to 7840 nM on Procathepsin L [1] and 12 nM on Cathepsin K. In addition, the Ki on Cathepsin B was above 10000 nM.

Values taken from ChEMBL document CHEMBL1146716, “(4-Piperidinylphenyl)aminoethyl amides as a novel class of non-covalent cathepsin K inhibitors” (Bioorg Med Chem Lett, 2004).
